Data as given in patent publication US7902373B2 (Pfizer Inc, priority 2006, dated 2011).

target: human recombinant H-PGDS (Homo sapiens, UniProt O60760); assay: Fluorescence intensity h-PGDS TBA enzyme assay; type: biochemical; conditions: Examples up to 622 (and 3a, 3b)
Sequence (O60760 whole entry): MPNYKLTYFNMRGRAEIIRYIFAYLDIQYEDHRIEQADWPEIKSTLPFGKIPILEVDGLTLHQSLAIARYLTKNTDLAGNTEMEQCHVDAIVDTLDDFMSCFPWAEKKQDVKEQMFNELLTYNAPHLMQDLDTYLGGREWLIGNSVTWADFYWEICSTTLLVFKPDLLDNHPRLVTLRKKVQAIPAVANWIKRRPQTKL

| SMILES | IC50 [nM] |
| --- | --- |
| CCOC(=O)c1csc(CN2CCC(NC(=O)c3ccc(-c4cccc(F)c4)nc3)CC2)n1 [Example 457, Ethyl 2-{[4-({[6-(3-fluorophenyl)pyridin-3-yl]carbonyl}amino)piperidin-1-yl]methyl}-1,3-thiazole-4-carboxylate] | 0.76 |
| Cc1nc(-c2ccccn2)nc(N2CCC(NC(=O)c3ccc(-c4cccc(F)c4)nc3)CC2)c1Cl [Example 48, N-[1-(5-Chloro-6-methyl-2-pyridin-2-ylpyrimidin-4-yl)piperidin-4-yl]-6-(3-fluorophenyl)nicotinamide] | 2.9 |
| COC(=O)c1cnc(N)nc1N1CCC(NC(=O)c2ccc(-c3cccc(F)c3)nc2)CC1 [Example 78, Methyl 2-amino-4-[4-({[6-(3-fluorophenyl)pyridin-3-yl]carbonyl}amino)piperidin-1-yl]pyrimidine-5-carboxylate] | 0.148 |
| CCOC(=O)N1CCC(NC(=O)c2ccc(-c3cccc(F)c3)nc2)CC1 [Example 32, Ethyl 4-({[6-(3-fluorophenyl)pyridin-3-yl]carbonyl}amino)piperidine-1-carboxylate] | 0.387 |
| O=C(NC1CCN(c2ncccn2)CC1)c1ccc(-c2cccc(F)c2)nc1 [Example 139, 6-(3-Fluorophenyl)-N-(1-pyrimidin-2-ylpiperidin-4-yl)nicotinamide] | 0.222 |
| O=C(NC1CCN(Cc2ccc(Oc3ccccc3)nc2)CC1)c1ccc(-c2cccc(F)c2)nc1 [Example 358, 6-(3-Fluorophenyl)-N-{1-[(6-phenoxypyridin-3-yl)methyl]piperidin-4-yl}nicotinamide] | 1.72 |
| O=C(NC1CCN(Cc2ccnc(NC3CC3)n2)CC1)c1ccc(-c2cccc(F)c2)nc1 [Example 393, N-(1-{[2-(Cyclopropylamino)pyrimidin-4-yl]methyl}piperidin-4-yl)-6-(3-fluorophenyl)nicotinamide] | 1.18 |
| Cc1cnc(Cn2cnc3c(N4CCC(NC(=O)c5ccc(-c6cccc(F)c6)nc5)CC4)ncnc32)cn1 [Example 162, 6-(3-Fluorophenyl)-N-(1-{9-[(5-methylpyrazin-2-yl)methyl]-9H-purin-6-yl}piperidin-4-yl)nicotinamide] | 1.1 |
| COc1ccc(CN2CCC(NC(=O)c3ccc(-c4cccc(F)c4)nc3)CC2)cn1 [Example 353, 6-(3-Fluorophenyl)-N-{1-[(6-methoxypyridin-3-yl)methyl]piperidin-4-yl}nicotinamide] | 0.959 |
| CN(C)CCCOc1ccccc1CN1CCC(NC(=O)c2ccc(-c3cccc(F)c3)nc2)CC1 [Example 273, N-(1-{2-[3-(Dimethylamino)propoxy]benzyl}piperidin-4-yl)-6-(3-fluorophenyl)nicotinamide] | 1.11 |
| O=C(NC1CCN(Cc2c[nH]c3ccc(F)cc23)CC1)c1ccc(-c2cccc(F)c2)nc1 [Example 252, N-{1-[(5-Fluoro-1H-indol-3-yl)methyl]piperidin-4-yl}-6-(3-fluorophenyl)nicotinamide] | 0.865 |
| Cc1cccc(-c2ccc(C(=O)NC3CCN(C(C)C)CC3)cn2)c1 [Example 25, N-(1-Isopropylpiperidin-4-yl)-6-(3-methylphenyl)nicotinamide] | 7.66 |
| COc1ccc(C(C)N2CCC(NC(=O)c3ccc(-c4cccc(F)c4)nc3)CC2)c(OC)c1 (centres unmarked) [Example 543, N-{1-[1-(2,4-Dimethoxyphenyl)ethyl]piperidin-4-yl}-6-(3-fluorophenyl)nicotinamide] | 3.27 |
| COc1cnc(-c2ccccn2)nc1N1CCC(NC(=O)c2ccc(-c3cccc(F)c3)nc2)CC1 [Example 35, 6-(3-Fluorophenyl)-N-(1-(5-methoxy-2-(pyridin-2-yl)pyrimidin-4-yl)piperidin-4-yl)nicotinamide] | 2.95 |
| O=C(NC1CCN(CC(F)(F)F)CC1)c1cnc(-c2cccc(F)c2)c(Cl)c1 [Example 620, 5-Chloro-6-(3-fluorophenyl)-N-[1-(2,2,2-trifluoroethyl)piperidin-4-yl]nicotinamide] | 3.66 |
| Cn1c(CN2CCC(NC(=O)c3ccc(-c4cccc(F)c4)nc3)CC2)nc2ncccc21 [Example 421, 6-(3-Fluorophenyl)-N-{1-[(1-methyl-1H-imidazo[4,5-b]pyridin-2-yl)methyl]piperidin-4-yl}nicotinamide] | 1.34 |
| Cn1c(CN2CCC(NC(=O)c3ccc(-c4cccc(F)c4)nc3)CC2)nc2cc(F)c(F)cc21 [Example 449, N-{1-[(5,6-Difluoro-1-methyl-1H-benzimidazol-2-yl)methyl]piperidin-4-yl}-6-(3-fluorophenyl)nicotinamide] | 2.8 |
| CC(C)(CN1CCC(NC(=O)c2ccc(-c3cccc(F)c3)nc2)CC1)NC(=O)OC(C)(C)C [Example 268, tert-Butyl {2-[4-({[6-(3-fluorophenyl)pyridin-3-yl]carbonyl}amino)piperidin-1-yl]-1,1-dimethylethyl}carbamate] | 8.08 |
| COc1ccc(CN2CCC(NC(=O)c3ccc(-c4cccc(F)c4)nc3)CC2)c(OC)c1 [Example 220, N-[1-(2,4-Dimethoxybenzyl)piperidin-4-yl]-6-(3-fluorophenyl)nicotinamide] | 2.42 |

| SMILES | IC50 [nM] |
| --- | --- |
| CCN(C)C(=O)c1ccc(N2CCC(NC(=O)c3ccc(-c4cccc(F)c4)nc3)CC2)nc1 [Example 566, N-Ethyl-6-[4-({[6-(3-fluorophenyl)pyridin-3-yl]carbonyl}amino)piperidin-1-yl]-N-methylnicotinamide] | 1.82 |
| O=C(NC1CCN(Cc2cccc3nsnc23)CC1)c1ccc(-c2cccc(F)c2)nc1 [Example 371, N-[1-(2,1,3-Benzothiadiazol-4-ylmethyl)piperidin-4-yl]-6-(3-fluorophenyl)nicotinamide] | 0.438 |
| N#Cc1cccnc1N1CCC(NC(=O)c2ccc(-c3cccc(F)c3)nc2)CC1 [Example 140, N-[1-(3-Cyanopyridin-2-yl)piperidin-4-yl]-6-(3-fluorophenyl)nicotinamide] | 0.628 |
| O=CN1CCC(NC(=O)c2ccc(-c3cccc(F)c3)nc2)CC1 [Example 524, 6-(3-Fluorophenyl)-N-(1-formylpiperidin-4-yl)nicotinamide] | 1.76 |
| CCCN(C)C(=O)c1ccc(N2CCC(NC(=O)c3ccc(-c4cccc(F)c4)nc3)CC2)nn1 [Example 82, 6-[4-({[6-(3-Fluorophenyl)pyridin-3-yl]carbonyl}amino)piperidin-1-yl]-N-methyl-N-propylpyridazine-3-carboxamide] | 1.05 |
| COc1ccc(F)c(CN2CCC(NC(=O)c3ccc(-c4cccc(F)c4)nc3)CC2)c1 [Example 323, N-[1-(2-Fluoro-5-methoxybenzyl)piperidin-4-yl]-6-(3-fluorophenyl)nicotinamide] | 0.622 |
| COc1cc(CN2CCC(NC(=O)c3ccc(-c4cccc(F)c4)nc3)CC2)c(F)cc1Cl [Example 467, N-[1-(4-Chloro-2-fluoro-5-methoxybenzyl)piperidin-4-yl]-6-(3-fluorophenyl)nicotinamide] | 0.257 |
| O=C(NC1CCN(c2nc3ccccc3s2)CC1)c1ccc(-c2cccc(F)c2)nc1 [Example 153, N-[1-(1,3-Benzothiazol-2-yl)piperidin-4-yl]-6-(3-fluorophenyl)nicotinamide] | 1.89 |
| COCCOc1c(CN2CCC(NC(=O)c3ccc(-c4cccc(F)c4)nc3)CC2)cccc1OC [Example 404, 6-(3-Fluorophenyl)-N-{1-[3-methoxy-2-(2-methoxyethoxy)benzyl]piperidin-4-yl}nicotinamide] | 0.469 |
| N#Cc1ccc(Oc2ccc(CN3CCC(NC(=O)c4ccc(-c5cccc(F)c5)nc4)CC3)cn2)cc1 [Example 308, N-(1-{[6-(4-Cyanophenoxy)pyridin-3-yl]methyl}piperidin-4-yl)-6-(3-fluorophenyl)nicotinamide] | 2.03 |
| CC1(CN2CCC(NC(=O)c3ccc(-c4cccc(F)c4)nc3)CC2)CCC1 [Example 511, 6-(3-Fluorophenyl)-N-{1-[(1-methylcyclobutyl)methyl]piperidin-4-yl}nicotinamide] | 1.09 |
| O=C(NC1CCN(c2nccc(NCc3ccccn3)n2)CC1)c1ccc(-c2cccc(F)c2)nc1 [Example 59, 6-(3-Fluorophenyl)-N-(1-{4-[(pyridin-2-ylmethyl)amino]pyrimidin-2-yl}piperidin-4-yl)nicotinamide] | 0.822 |
| O=C(NC1CCN(CC(F)(F)F)CC1)c1ccc(N2CCC(NC(=O)c3ccc(-c4cccc(F)c4)nc3)CC2)nc1 [Example 577, 6-(3-Fluorophenyl)-N-{1-[5-({[1-(2,2,2-trifluoroethyl)piperidin-4-yl]amino}carbonyl)pyridin-2-yl]piperidin-4-yl}nicotinamide] | 1.48 |
| C[C@@H]1Oc2ccc(CN3CCC(NC(=O)c4ccc(-c5cccc(F)c5)nc4)CC3)cc2[C@H]1C(=O)O [Example 458, (2S,3R)-5-{[4-({[6-(3-Fluorophenyl)pyridin-3-yl]carbonyl}amino)piperidin-1-yl]methyl}-2-methyl-2,3-dihydro-1-benzofuran-3-carboxylic acid] | 1.78 |
| CC(CC1(C)CC1)N1CCC(NC(=O)c2ccc(-c3cccc(F)c3)nc2)CC1 (centres unmarked) [Example 529, 6-(3-Fluorophenyl)-N-{1-[1-methyl-2-(1-methylcyclopropyl)ethyl]piperidin-4-yl}nicotinamide] | 2.5 |
| Cc1nnc(-c2ccc(CN3CCC(NC(=O)c4ccc(-c5cccc(F)c5)nc4)CC3)cc2)o1 [Example 454, 6-(3-Fluorophenyl)-N-{1-[4-(5-methyl-1,3,4-oxadiazol-2-yl)benzyl]piperidin-4-yl}nicotinamide] | 0.82 |
| CCOc1c(CN2CCC(NC(=O)c3ccc(-c4cccc(F)c4)nc3)CC2)cccc1OC [Example 316, N-[1-(2-Ethoxy-3-methoxybenzyl)piperidin-4-yl]-6-(3-fluorophenyl)nicotinamide] | 1.36 |
| O=C(NC1CCN(Cc2cccn3c(Br)cnc23)CC1)c1ccc(-c2cccc(F)c2)nc1 [Example 377, N-{1-[(3-Bromoimidazo[1,2-a]pyridin-8-yl)methyl]piperidin-4-yl}-6-(3-fluorophenyl)nicotinamide] | 0.491 |
| O=C(NC1CCN(c2ccc(C(=O)N3CC=CC3)cn2)CC1)c1ccc(-c2cccc(F)c2)nc1 [Example 571, N-{1-[5-(2,5-Dihydro-1H-pyrrol-1-ylcarbonyl)pyridin-2-yl]piperidin-4-yl)-6-(3-fluorophenyl)nicotinamide] | 1.04 |
